From PubChem BioAssay AID2060491 (Molecular Pharmacology Branch, DTP, NCI, 2025)

Test system: 857933-349-R-J2-PDC complex spheroids, viability
Test: Anticancer human tumor 857933-349-R-J2-PDC patient-derived colon adenocarcinoma cell line growth inhibition [GQUAD]
Details: for IC50: curve of first compound; for viability, T/C: stronger effect = lower value
Procedure, shortened: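 Tumor cells were grown as complex spheroids with HUVEC endothelial cells and mesenchymal stem cells as stroma. G-quadruplex stabilizers were combined with targeted agents over half-log dilutions from near the clinical Cmax, or from 10 microM.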

[1] = second compound 0.0316 µM, first compound 0.0316 µM
[2] = second compound 0.0316 µM, first compound 0.316 µM
[3] = second compound 0.1 µM, first compound 0.0316 µM
[4] = second compound 0.1 µM, first compound 0.316 µM
[5] = second compound 0.316 µM, first compound 0.0316 µM
[6] = second compound 0.316 µM, first compound 0.316 µM
[7] = second compound 1 µM, first compound 0.0316 µM
[8] = second compound 1 µM, first compound 0.316 µM
[9] = second compound 3.16 µM, first compound 0.0316 µM
[10] = second compound 3.16 µM, first compound 0.316 µM
[11] = second compound 10 µM, first compound 0.0316 µM
[12] = second compound 10 µM, first compound 0.316 µM
[13] = second compound 0.0316 µM, first compound 0.1 µM
[14] = second compound 0.0316 µM, first compound 1 µM
[15] = second compound 0.0316 µM, first compound 3.16 µM
[16] = second compound 0.0316 µM, first compound 10 µM
[17] = second compound 0.1 µM, first compound 0.1 µM
[18] = second compound 0.1 µM, first compound 1 µM
[19] = second compound 0.1 µM, first compound 3.16 µM
[20] = second compound 0.1 µM, first compound 10 µM
[21] = second compound 0.316 µM, first compound 0.1 µM
[22] = second compound 0.316 µM, first compound 1 µM
[23] = second compound 0.316 µM, first compound 3.16 µM
[24] = second compound 0.316 µM, first compound 10 µM
[25] = second compound 1 µM, first compound 0.1 µM
[26] = second compound 1 µM, first compound 1 µM
[27] = second compound 1 µM, first compound 3.16 µM
[28] = second compound 1 µM, first compound 10 µM
[29] = second compound 3.16 µM, first compound 0.1 µM
[30] = second compound 3.16 µM, first compound 1 µM
[31] = second compound 3.16 µM, first compound 3.16 µM
[32] = second compound 3.16 µM, first compound 10 µM
[33] = second compound 10 µM, first compound 0.1 µM
[34] = second compound 10 µM, first compound 1 µM
[35] = second compound 10 µM, first compound 3.16 µM
[36] = second compound 10 µM, first compound 10 µM
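Also: spheroids exposed to compounds for one week before readout.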
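For viability, T/C in this document: percent viability relative to vehicle DMSO wells taken as 100%.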

Molecule `CC[C@@]1(O)C(=O)OCc2c1cc1n(c2=O)Cc2cc3c(CN(C)C)c(O)ccc3nc2-1` + CN(C)c1ccc(Nc2c3ccc(NC(=O)CCN4CCCC4)cc3nc3cc(NC(=O)CCN4CCCC4)ccc23)cc1 has an IC50 (second compound 0.0316 µM) of 0.262 µM, an IC50 (second compound 0.1 µM) of 0.272 µM and an IC50 (second compound 0.316 µM) of 0.277 µM. The IC50 (second compound 1 µM) was 0.296 µM, the IC50 (second compound 3.16 µM) was > 0.316 µM and the IC50 (second compound 10 µM) was > 0.316 µM. For the same molecule, the viability, T/C (second compound 0.0316 µM, first compound 0.000999 µM) was 101%, the viability, T/C (second compound 0.0316 µM, first compound 0.00316 µM) was 103% and the viability, T/C (second compound 0.0316 µM, first compound 0.00999 µM) was 101%. The viability, T/C [1] was 98.2%, the viability, T/C (second compound 0.0316 µM, first compound 0.0999 µM) was 67% and the viability, T/C [2] was 46.7%. For the same molecule, the viability, T/C (second compound 0.1 µM, first compound 0.000999 µM) was 105%, the viability, T/C (second compound 0.1 µM, first compound 0.00316 µM) was 109% and the viability, T/C (second compound 0.1 µM, first compound 0.00999 µM) was 95.3%. The viability, T/C [3] was 97.7%, the viability, T/C (second compound 0.1 µM, first compound 0.0999 µM) was 70.5% and the viability, T/C [4] was 47%. For the same molecule, the viability, T/C (second compound 0.316 µM, first compound 0.000999 µM) was 108%, the viability, T/C (second compound 0.316 µM, first compound 0.00316 µM) was 101% and the viability, T/C (second compound 0.316 µM, first compound 0.00999 µM) was 98.7%. For the same molecule, the viability, T/C [5] was 89.6%, the viability, T/C (second compound 0.316 µM, first compound 0.0999 µM) was 80.7% and the viability, T/C [6] was 45.1%. For the same molecule, the viability, T/C (second compound 1 µM, first compound 0.000999 µM) was 99.7%, the viability, T/C (second compound 1 µM, first compound 0.00316 µM) was 99.1% and the viability, T/C (second compound 1 µM, first compound 0.00999 µM) was 95.9%. For the same molecule, the viability, T/C [7] was 88.5%, the viability, T/C (second compound 1 µM, first compound 0.0999 µM) was 77.1% and the viability, T/C [8] was 48%. The viability, T/C (second compound 3.16 µM, first compound 0.000999 µM) was 94.2%, the viability, T/C (second compound 3.16 µM, first compound 0.00316 µM) was 77.4% and the viability, T/C (second compound 3.16 µM, first compound 0.00999 µM) was 84.7%. It also gave a viability, T/C [9] of 76.1%, a viability, T/C (second compound 3.16 µM, first compound 0.0999 µM) of 77.8% and a viability, T/C [10] of 54.5%. The viability, T/C (second compound 10 µM, first compound 0.000999 µM) was 72.3%, the viability, T/C (second compound 10 µM, first compound 0.00316 µM) was 76.8% and the viability, T/C (second compound 10 µM, first compound 0.00999 µM) was 69.5%. For the same molecule, the viability, T/C [11] was 69.9%, the viability, T/C (second compound 10 µM, first compound 0.0999 µM) was 68.7% and the viability, T/C [12] was 59%.

In the case of `COc1ccc([C@@H](O)c2cc(-c3ncnc4cc(N5CCOCC5)ccc34)c(F)cc2Cl)nn1` + CN(C)c1ccc(Nc2c3ccc(NC(=O)CCN4CCCC4)cc3nc3cc(NC(=O)CCN4CCCC4)ccc23)cc1, the IC50 (second compound 0.0316 µM) is reported as > 10 µM, the IC50 (second compound 0.1 µM) is reported as > 10 µM and the IC50 (second compound 0.316 µM) is reported as > 10 µM. The IC50 (second compound 1 µM) was > 10 µM, the IC50 (second compound 3.16 µM) was > 10 µM and the IC50 (second compound 10 µM) was > 10 µM. The viability, T/C [1] was 110%, the viability, T/C [13] was 99.5% and the viability, T/C [2] was 101%. The viability, T/C [14] was 93.3%, the viability, T/C [15] was 82.5% and the viability, T/C [16] was 61%. The viability, T/C [3] was 106%, the viability, T/C [17] was 101% and the viability, T/C [4] was 103%. It also gave a viability, T/C [18] of 94.2%, a viability, T/C [19] of 80.9% and a viability, T/C [20] of 60.1%. It also gave a viability, T/C [5] of 102%, a viability, T/C [21] of 101% and a viability, T/C [6] of 99.1%. The viability, T/C [22] was 85.8%, the viability, T/C [23] was 83.6% and the viability, T/C [24] was 58.2%. The viability, T/C [7] was 98.8%, the viability, T/C [25] was 91.2% and the viability, T/C [8] was 99.3%. It also gave a viability, T/C [26] of 85.4%, a viability, T/C [27] of 79% and a viability, T/C [28] of 62.4%. For the same molecule, the viability, T/C [9] was 85.2%, the viability, T/C [29] was 85.9% and the viability, T/C [10] was 91.5%. For the same molecule, the viability, T/C [30] was 77.8%, the viability, T/C [31] was 69.5% and the viability, T/C [32] was 57.1%. The viability, T/C [11] was 73.5%, the viability, T/C [33] was 77.9% and the viability, T/C [12] was 70.4%. The viability, T/C [34] was 72.5%, the viability, T/C [35] was 63.4% and the viability, T/C [36] was 54.8%.

`C#Cc1c(F)ccc2cc(O)cc(-c3ncc4c(N5CC6CCC(C5)N6)nc(OCC56CCCN5CC(F)C6)nc4c3F)c12` (stereo unspecified) + CN(C)c1ccc(Nc2c3ccc(NC(=O)CCN4CCCC4)cc3nc3cc(NC(=O)CCN4CCCC4)ccc23)cc1 was tested, and the IC50 (second compound 0.0316 µM) was > 10 µM, the IC50 (second compound 0.1 µM) was > 10 µM and the IC50 (second compound 0.316 µM) was > 10 µM. For the same molecule, the IC50 (second compound 1 µM) was > 10 µM, the IC50 (second compound 3.16 µM) was > 10 µM and the IC50 (second compound 10 µM) was > 10 µM. For the same molecule, the viability, T/C [1] was 111%, the viability, T/C [13] was 96.2% and the viability, T/C [2] was 98.1%. For the same molecule, the viability, T/C [14] was 96.8%, the viability, T/C [15] was 102% and the viability, T/C [16] was 90.3%. It also gave a viability, T/C [3] of 104%, a viability, T/C [17] of 104% and a viability, T/C [4] of 96.1%. It also gave a viability, T/C [18] of 101%, a viability, T/C [19] of 94.3% and a viability, T/C [20] of 94.6%. For the same molecule, the viability, T/C [5] was 99.1%, the viability, T/C [21] was 97% and the viability, T/C [6] was 95.5%. The viability, T/C [22] was 92%, the viability, T/C [23] was 96.2% and the viability, T/C [24] was 87%. For the same molecule, the viability, T/C [7] was 97.1%, the viability, T/C [25] was 88.7% and the viability, T/C [8] was 91.3%. The viability, T/C [26] was 77.8%, the viability, T/C [27] was 91.4% and the viability, T/C [28] was 80.3%. For the same molecule, the viability, T/C [9] was 81.6%, the viability, T/C [29] was 75.1% and the viability, T/C [10] was 80.6%. The viability, T/C [30] was 69.7%, the viability, T/C [31] was 78.2% and the viability, T/C [32] was 74.7%. The viability, T/C [11] was 67.4%, the viability, T/C [33] was 67.5% and the viability, T/C [12] was 63.5%. The viability, T/C [34] was 68.8%, the viability, T/C [35] was 71% and the viability, T/C [36] was 58.9%.
